What was measured:
[1] = Compound stability in rat liver microsomes; assay type: in vitro ADME; conditions: pH 7.4; for CLint scaled at 5 μM: liver microsomes, in vivo CLint extrapolated from rat liver microsome incubation; for half-life at 5 μM: rat liver microsomes 0.5 mg protein/mL, compound 5 μM, NADPH 1.0 mM, 37° C., read-out: Rat T1/2
Summary of the method: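 Human or rat liver microsomes (0.5 mg protein/mL) incubated with compound (5 μM) and NADPH (1.0 mM) in 100 mM potassium phosphate, pH 7.4, 0.05% DMSO, 37° C, sampled 0–60 min and quenched with cold acetonitrile. Remaining compound quantified by LC/MS/MS as % of time zero; CLint extrapolated.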

[2] = Pharmacokinetic profiles in rats; assay type: in vivo, rat; conditions: for Cl/F / AUC(0-t) / half-life / Vd: iv dosing 1 mg/kg; for F: oral vs iv (iv 1 mg/kg; p.o. generally 5 or 10 mg/kg); for AUC(0-t) / half-life / Vd: rat, plasma; for Vd: read-out: Vss
Summary of the method: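 In rats, dogs and monkeys, IV dose was generally 1 or 2 mg/kg. Oral dose was generally 5 or 10 mg/kg in rats and 10 mg/kg in dogs and monkeys, given as solution, suspension or capsule. Plasma sampled over up to 24 h and analysed by LC/MS/MS.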

PI3K (p110β/p85α) (h) = PI3K (p110β/p85α) (h) (Homo sapiens (Human), UniProt P42338); test: PI3K (p110β/p85α) (h) non-radioactive HTRF kinase assay; assay type: biochemical; conditions: performed at Millipore UK Ltd
Sequence of PI3K (p110β/p85α) (h) (P42338 whole entry): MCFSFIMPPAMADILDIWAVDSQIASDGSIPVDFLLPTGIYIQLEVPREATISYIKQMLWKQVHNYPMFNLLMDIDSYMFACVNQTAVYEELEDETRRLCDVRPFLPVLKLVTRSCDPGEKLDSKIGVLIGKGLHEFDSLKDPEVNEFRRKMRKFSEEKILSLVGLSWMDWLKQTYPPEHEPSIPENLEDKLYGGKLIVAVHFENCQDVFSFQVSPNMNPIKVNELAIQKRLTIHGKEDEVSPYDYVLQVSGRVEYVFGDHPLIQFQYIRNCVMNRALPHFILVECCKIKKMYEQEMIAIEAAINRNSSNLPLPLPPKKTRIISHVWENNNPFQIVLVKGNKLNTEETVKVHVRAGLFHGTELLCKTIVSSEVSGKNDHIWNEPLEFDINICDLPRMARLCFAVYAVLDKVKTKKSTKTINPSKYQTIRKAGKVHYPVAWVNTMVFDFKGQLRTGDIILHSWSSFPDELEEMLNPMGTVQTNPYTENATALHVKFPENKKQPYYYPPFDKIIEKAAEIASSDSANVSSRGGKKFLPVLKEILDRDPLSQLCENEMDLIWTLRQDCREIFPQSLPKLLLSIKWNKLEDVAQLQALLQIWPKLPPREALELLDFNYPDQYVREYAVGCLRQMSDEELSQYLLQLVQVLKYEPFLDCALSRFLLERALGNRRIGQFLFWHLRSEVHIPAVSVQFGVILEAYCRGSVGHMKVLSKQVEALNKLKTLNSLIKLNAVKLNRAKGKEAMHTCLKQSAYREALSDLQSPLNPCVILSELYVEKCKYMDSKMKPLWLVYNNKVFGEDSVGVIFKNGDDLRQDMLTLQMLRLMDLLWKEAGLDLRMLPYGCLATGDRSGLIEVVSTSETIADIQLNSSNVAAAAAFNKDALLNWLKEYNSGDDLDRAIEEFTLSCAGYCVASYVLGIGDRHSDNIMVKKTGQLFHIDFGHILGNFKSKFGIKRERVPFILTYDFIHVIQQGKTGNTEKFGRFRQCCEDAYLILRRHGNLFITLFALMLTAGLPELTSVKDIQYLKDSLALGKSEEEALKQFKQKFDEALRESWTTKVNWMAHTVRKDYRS
Sequence of PI3K (p110β/p85α) (h) (P27986 whole entry partner): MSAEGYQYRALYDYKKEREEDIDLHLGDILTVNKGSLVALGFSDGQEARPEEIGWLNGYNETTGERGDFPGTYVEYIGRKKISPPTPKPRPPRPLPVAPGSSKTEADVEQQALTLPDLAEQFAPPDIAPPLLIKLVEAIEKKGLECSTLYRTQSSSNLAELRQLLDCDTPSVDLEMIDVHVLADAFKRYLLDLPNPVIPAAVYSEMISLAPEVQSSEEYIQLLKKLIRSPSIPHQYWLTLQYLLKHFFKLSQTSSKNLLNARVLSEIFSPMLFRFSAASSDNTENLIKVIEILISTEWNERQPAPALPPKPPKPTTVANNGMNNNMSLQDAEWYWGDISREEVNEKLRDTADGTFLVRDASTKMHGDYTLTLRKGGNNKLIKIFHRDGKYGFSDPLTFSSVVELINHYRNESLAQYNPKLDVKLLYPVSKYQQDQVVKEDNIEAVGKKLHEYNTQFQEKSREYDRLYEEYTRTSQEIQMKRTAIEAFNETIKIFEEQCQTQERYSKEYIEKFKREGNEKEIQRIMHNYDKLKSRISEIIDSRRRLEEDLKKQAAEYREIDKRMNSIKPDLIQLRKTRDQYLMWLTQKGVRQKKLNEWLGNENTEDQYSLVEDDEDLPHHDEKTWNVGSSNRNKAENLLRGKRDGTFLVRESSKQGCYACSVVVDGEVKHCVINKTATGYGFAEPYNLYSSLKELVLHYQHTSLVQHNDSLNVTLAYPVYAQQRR
Description: The above assay procedure can be used to determine the IC50 for inhibition and/or the inhibition constant, Ki.
PI3K (p110β/p85α) (h) [Non-Radioactive Assay]
PI3K ([…]) (h) is incubated in assay buffer containing 10 μM phosphatidylinositol-4, 5-bisphosphate and MgATP (concentration as required). The reaction is initiated by the addition of the MgATP mix. After incubation for 30 minutes at room temperature, the reaction is stopped by the addition of stop solution containing EDTA and biotinylated phosphatidylinositol-3,4,5-trisphosphate. Finally, detection buffer is added, which contains europium-labelled anti-GST monoclonal antibody, GST-tagged GRP1 PH domain and streptavidin-allophycocyanin. The plate is then read in timeresolved fluorescence mode and the homogenous time-resolved fluorescence (HTRF) signal is determined according to the formula HTRF=10000×(Em665 nm/Em620 nm).
The kinase assays described herein were performed at Millipore UK Ltd, Dundee Technology Park, Dundee DD2 1SW, UK.

[3] = Pharmacokinetic profiles in dogs; assay type: in vivo; conditions: Dog; for clearance / AUC(0-t) / half-life / Vd: iv dosing 1 mg/kg; for F: oral vs iv (iv 1 mg/kg; p.o. generally 10 mg/kg); for AUC(0-t) / half-life / Vd: plasma; for Vd: read-out: Vss
Description: (§1) The compounds disclosed herein are assessed in pharmacokinetic studies in mice, rats, dogs or monkeys. The compounds are administered as a water solution, 2% HPMC+1% TWEEN®80 in water solution, 5% DMSO+5% solutol in saline, 4% MC suspension or capsule. For the intravenous administration, the animals are generally given at 1 or 2 mg/kg dose. For the oral (p.o.) dosing, mice and rats are generally given 5 or 10 mg/kg dose, and dogs and monkeys are generally given 10 mg/kg dose. The blood samples (0.3 mL) are drawn at 0.25, 0.5, 1.0, 2.0, 3.0, 4.0, 6.0, 8.0, 12 and 24 h time points or 0.083, 0.25, 0.5, 1.0, 2.0, 4.0, 6.0, 8.0 and 24 h time points and centrifuged at 3,000 or 4000 rpm for 2 to 10 min. The plasma solutions are collected, stored at −20° C. or −70° C. until analyzed by LC/MS/MS as described above.

[4] = Pharmacokinetic profiles in monkeys; assay type: in vivo; conditions: Monkey; for Cl/F / AUC(0-t) / half-life / Vd: iv dosing 1 mg/kg; for F: oral vs iv (iv 1 mg/kg; p.o. generally 10 mg/kg); for AUC(0-t) / half-life / Vd: plasma; for Vd: read-out: Vss
Description: as §1

Row | CLint scaled at 5 μM [1] | half-life at 5 μM [1] | Cl/F [2] | F [2] | AUC(0-t) [2] | half-life [2] | Vd [2] | IC50 (PI3K (p110β/p85α) (h)) | clearance [3] | F [3] | AUC(0-t) [3] | half-life [3] | Vd [3] | Cl/F [4] | F [4] | AUC(0-t) [4] | half-life [4] | Vd [4] | Compound
1 | 6.1 L/h/kg | 0.407 h | 2.00 L/h/kg | 78.78% | 0.498 µg·h/mL | 0.98 h | 2.4 L/kg | 0.03 µM |  |  |  |  |  |  |  |  |  |  | Cc1nnc(-c2c(N)ncnc2N[C@@H](C)c2cc3cccc(Cl)c3c(=O)n2C2CC2)o1 [Ex. 4, (S)-3-(1-((6-amino-5-(5-methyl-1,3,4-oxadiazol-2-yl)pyrimidin-4-yl)amino)ethyl)-8-chloro-2-cyclopropylisoquinolin-1(2H)-one]
2 | 13.7 L/h/kg | 0.181 h | 3.47 L/h/kg | 93.06% | 0.291 µg·h/mL | 0.92 h | 1.94 L/kg |  | 0.73 L/h/kg | 52.85% | 1.35 µg·h/mL | 1.7 h | 1.43 L/kg | 1.46 L/h/kg | 13.1% | 0.711 µg·h/mL | 0.65 h | 1.2 L/kg | Cc1noc(-c2c(N)ncnc2N[C@@H](C)c2cc3cccc(Cl)c3c(=O)n2-c2ccccc2)n1 [Ex. 8, (S)-3-(1-((6-amino-5-(3-methyl-1,2,4-oxadiazol-5-yl)pyrimidin-4-yl)amino)ethyl)-8-chloro-2-phenylisoquinolin-1(2H)-one]
3 | 11.1 L/h/kg | 0.224 h | 1.04 L/h/kg | 66.87% | 0.964 µg·h/mL | 1.38 h | 1.04 L/kg |  | 1.42 L/h/kg | 72.99% | 0.695 µg·h/mL | 1.25 h | 2.04 L/kg | 0.89 L/h/kg | 179.7% | 1.12 µg·h/mL | 1.23 h | 1.17 L/kg | Cc1nnc(-c2c(N)ncnc2N[C@@H](C)c2cc3cccc(Cl)c3c(=O)n2-c2ccccc2)o1 [Ex. 9, (S)-3-(1-((6-amino-5-(5-methyl-1,3,4-oxadiazol-2-yl)pyrimidin-4-yl)amino)ethyl)-8-chloro-2-phenylisoquinolin-1(2H)-one]
4 | 0.87 L/h/kg | 2.85 h | 2.00 L/h/kg | 81.0% | 0.497 µg·h/mL | 1.32 h | 3.31 L/kg | 0.9 µM |  |  |  |  |  |  |  |  |  |  | Cc1nnc(-c2c(N)ncnc2N[C@@H](C)c2cc3cccc(-c4cnn(C)c4)c3c(=O)n2C2CC2)o1 [Ex. 25, (S)-3-(1-((6-amino-5-(5-methyl-1,3,4-oxadiazol-2-yl)pyrimidin-4-yl)amino)ethyl)-2-cyclopropyl-8-(1-methyl-1H-pyrazol-4-yl)isoquinolin-1 (2H)-one]
5 | 1.34 L/h/kg | 1.86 h | 3.02 L/h/kg | 121.0% | 0.337 µg·h/mL | 0.84 h | 3.14 L/kg | 0.176 µM |  |  |  |  |  |  |  |  |  |  | Cc1noc(-c2c(N)ncnc2N[C@@H](C)c2cc3cccc(-c4cnn(C)c4)c3c(=O)n2C2CC2)n1 [Ex. 26, (S)-3-(1-((6-amino-5-(3-methyl-1,2,4-oxadiazol-5-yl)pyrimidin-4-yl)amino)ethyl)-2-cyclopropyl-8-(1-methyl-1H-pyrazol-4-yl)isoquinolin-1 (2H)-one]
